Data reported in PubChem BioAssay (NCI).
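In this assay, cells in 96-well plates receive the compound at five concentrations for 48 hours. Endpoints are linearly interpolated between the surrounding concentrations. TGI: total growth inhibition.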

Experiments:
Assay in all cases: DTP human tumour cell line panel, 48 h
SK-MEL-28 melanoma = tested on: SK-MEL-28 melanoma
SNB-75 CNS = tested on: SNB-75 CNS
RXF 393 renal = tested on: RXF 393 renal
EKVX NSCLC = tested on: EKVX NSCLC
OVCAR-3 ovarian = tested on: OVCAR-3 ovarian
PC-3 prostate = tested on: PC-3 prostate
SW-620 colon = tested on: SW-620 colon
SK-MEL-2 melanoma = tested on: SK-MEL-2 melanoma
ACHN renal = tested on: ACHN renal
UACC-257 melanoma = tested on: UACC-257 melanoma
DU-145 prostate = tested on: DU-145 prostate
MDA-N = tested on: MDA-N
COLO 205 colon = tested on: COLO 205 colon
HL-60(TB) leukemia = tested on: HL-60(TB) leukemia
SN12C renal = tested on: SN12C renal
TK-10 renal = tested on: TK-10 renal
SR leukemia = tested on: SR leukemia
HOP-92 NSCLC = tested on: HOP-92 NSCLC
A498 renal = tested on: A498 renal
HT29 colon = tested on: HT29 colon
SK-OV-3 ovarian = tested on: SK-OV-3 ovarian
MOLT-4 leukemia = tested on: MOLT-4 leukemia
SNB-19 CNS = tested on: SNB-19 CNS
UO-31 renal = tested on: UO-31 renal
SF-268 CNS = tested on: SF-268 CNS
NCI-H226 lung = tested on: NCI-H226 lung
LOX IMVI melanoma = tested on: LOX IMVI melanoma
SK-MEL-5 melanoma = tested on: SK-MEL-5 melanoma
MALME-3M melanoma = tested on: MALME-3M melanoma
HCT-15 colon = tested on: HCT-15 colon
HOP-62 NSCLC = tested on: HOP-62 NSCLC
SF-539 CNS = tested on: SF-539 CNS
A549 NSCLC = tested on: A549 NSCLC
M14 melanoma = tested on: M14 melanoma
RPMI-8226 leukemia = tested on: RPMI-8226 leukemia
T-47D breast = tested on: T-47D breast
786-0 renal = tested on: 786-0 renal
NCI-H522 lung = tested on: NCI-H522 lung
NCI/ADR-RES ovarian = tested on: NCI/ADR-RES ovarian
CCRF-CEM leukemia = tested on: CCRF-CEM leukemia
U251 CNS = tested on: U251 CNS
OVCAR-5 ovarian = tested on: OVCAR-5 ovarian
NCI-H23 lung = tested on: NCI-H23 lung
HCT-116 colon = tested on: HCT-116 colon
KM12 colon = tested on: KM12 colon
SF-295 CNS = tested on: SF-295 CNS
MDA-MB-435 = tested on: MDA-MB-435
IGROV1 ovarian = tested on: IGROV1 ovarian
OVCAR-8 ovarian = tested on: OVCAR-8 ovarian
CAKI-1 renal = tested on: CAKI-1 renal
MDA-MB-231 breast = tested on: MDA-MB-231 breast
K-562 leukemia = tested on: K-562 leukemia
OVCAR-4 ovarian = tested on: OVCAR-4 ovarian
HS 578T breast = tested on: HS 578T breast
MCF7 breast = tested on: MCF7 breast
UACC-62 melanoma = tested on: UACC-62 melanoma
NCI-H460 lung = tested on: NCI-H460 lung
BT-549 breast = tested on: BT-549 breast
HCC-2998 colon = tested on: HCC-2998 colon

With `COc1ccc(/C=C2/NC(=S)N=C2Cl)cc1` as the compound, how does the TGI (SK-MEL-28 melanoma) read?
The TGI was over 100 µM.

And the TGI (SNB-75 CNS)?
The TGI was over 100 µM.

What about the TGI (RXF 393 renal) of the same compound?
The TGI was over 100 µM.

And the TGI (EKVX NSCLC)?
The TGI was over 100 µM.

And the TGI (OVCAR-3 ovarian)?
The TGI was over 100 µM.

What about the TGI (PC-3 prostate) of the same compound?
The TGI was over 100 µM.

And the TGI (SW-620 colon)?
The TGI was over 100 µM.

What about the TGI (SK-MEL-2 melanoma) of the same compound?
Its TGI is over 100 µM.

And the TGI (ACHN renal)?
Its TGI is over 100 µM.

What about the TGI (UACC-257 melanoma) of the same compound?
The TGI was over 100 µM.

And the TGI (DU-145 prostate)?
Its TGI is over 100 µM.

And the TGI (MDA-N)?
The TGI was over 100 µM.

What about the TGI (COLO 205 colon) of the same compound?
The TGI was over 100 µM.

And the TGI (HL-60(TB) leukemia)?
The TGI was over 100 µM.

And the TGI (SN12C renal)?
Its TGI is over 100 µM.

And the TGI (TK-10 renal)?
The TGI was over 100 µM.

What about the TGI (SR leukemia) of the same compound?
Its TGI is over 100 µM.

And the TGI (HOP-92 NSCLC)?
The TGI was over 100 µM.

And the TGI (A498 renal)?
The TGI was over 100 µM.

And the TGI (HT29 colon)?
The TGI was over 100 µM.

What about the TGI (SK-OV-3 ovarian) of the same compound?
Its TGI is over 100 µM.

What about the TGI (MOLT-4 leukemia) of the same compound?
Its TGI is over 100 µM.

What about the TGI (SNB-19 CNS) of the same compound?
The TGI was over 100 µM.

And the TGI (UO-31 renal)?
Its TGI is over 100 µM.

What about the TGI (SF-268 CNS) of the same compound?
Its TGI is over 100 µM.

And the TGI (NCI-H226 lung)?
The TGI was over 100 µM.

What about the TGI (LOX IMVI melanoma) of the same compound?
The TGI was over 100 µM.

And the TGI (SK-MEL-5 melanoma)?
The TGI was over 100 µM.

And the TGI (MALME-3M melanoma)?
Its TGI is over 100 µM.

And the TGI (HCT-15 colon)?
Its TGI is over 100 µM.

And the TGI (HOP-62 NSCLC)?
Its TGI is over 100 µM.

What about the TGI (SF-539 CNS) of the same compound?
Its TGI is over 100 µM.

What about the TGI (A549 NSCLC) of the same compound?
Its TGI is over 100 µM.

And the TGI (M14 melanoma)?
The TGI was over 100 µM.

And the TGI (RPMI-8226 leukemia)?
Its TGI is over 100 µM.

What about the TGI (T-47D breast) of the same compound?
Its TGI is over 100 µM.

What about the TGI (786-0 renal) of the same compound?
Its TGI is over 100 µM.

What about the TGI (NCI-H522 lung) of the same compound?
The TGI was over 100 µM.

And the TGI (NCI/ADR-RES ovarian)?
The TGI was over 100 µM.

What about the TGI (CCRF-CEM leukemia) of the same compound?
Its TGI is over 100 µM.

What about the TGI (U251 CNS) of the same compound?
The TGI was over 100 µM.

And the TGI (OVCAR-5 ovarian)?
The TGI was 37.9 µM.

And the TGI (NCI-H23 lung)?
Its TGI is over 100 µM.

What about the TGI (HCT-116 colon) of the same compound?
Its TGI is over 100 µM.

What about the TGI (KM12 colon) of the same compound?
The TGI was over 100 µM.

And the TGI (SF-295 CNS)?
The TGI was over 100 µM.

And the TGI (MDA-MB-435)?
Its TGI is over 100 µM.

And the TGI (IGROV1 ovarian)?
The TGI was over 100 µM.

And the TGI (OVCAR-8 ovarian)?
The TGI was over 100 µM.

And the TGI (CAKI-1 renal)?
The TGI was over 100 µM.

And the TGI (MDA-MB-231 breast)?
Its TGI is over 100 µM.

What about the TGI (K-562 leukemia) of the same compound?
The TGI was over 100 µM.

What about the TGI (OVCAR-4 ovarian) of the same compound?
The TGI was over 100 µM.

What about the TGI (HS 578T breast) of the same compound?
The TGI was over 100 µM.

What about the TGI (MCF7 breast) of the same compound?
Its TGI is over 100 µM.

`SCc1ccc(CS)s1` was tested. Which TGI (SK-MEL-28 melanoma) did it give?
The TGI was over 100 µM.

What about the TGI (SNB-75 CNS) of the same compound?
The TGI was over 100 µM.

And the TGI (EKVX NSCLC)?
Its TGI is over 100 µM.

And the TGI (UACC-62 melanoma)?
The TGI was over 100 µM.

And the TGI (OVCAR-3 ovarian)?
Its TGI is over 100 µM.

And the TGI (PC-3 prostate)?
The TGI was over 100 µM.

And the TGI (SW-620 colon)?
The TGI was over 100 µM.

And the TGI (UACC-257 melanoma)?
Its TGI is over 100 µM.

And the TGI (DU-145 prostate)?
The TGI was over 100 µM.

What about the TGI (MDA-N) of the same compound?
The TGI was over 100 µM.

What about the TGI (COLO 205 colon) of the same compound?
The TGI was over 100 µM.

And the TGI (HL-60(TB) leukemia)?
The TGI was over 100 µM.

What about the TGI (SN12C renal) of the same compound?
The TGI was over 100 µM.

And the TGI (TK-10 renal)?
Its TGI is over 100 µM.

What about the TGI (NCI-H460 lung) of the same compound?
Its TGI is over 100 µM.

What about the TGI (SR leukemia) of the same compound?
The TGI was over 100 µM.

What about the TGI (HOP-92 NSCLC) of the same compound?
The TGI was over 100 µM.

What about the TGI (HT29 colon) of the same compound?
The TGI was over 100 µM.

What about the TGI (SK-OV-3 ovarian) of the same compound?
Its TGI is over 100 µM.

What about the TGI (MOLT-4 leukemia) of the same compound?
The TGI was over 100 µM.

And the TGI (SNB-19 CNS)?
The TGI was over 100 µM.

What about the TGI (UO-31 renal) of the same compound?
Its TGI is over 100 µM.

What about the TGI (SF-268 CNS) of the same compound?
Its TGI is over 100 µM.

What about the TGI (LOX IMVI melanoma) of the same compound?
The TGI was over 100 µM.

What about the TGI (SK-MEL-5 melanoma) of the same compound?
Its TGI is over 100 µM.

What about the TGI (HCT-15 colon) of the same compound?
Its TGI is over 100 µM.

And the TGI (HOP-62 NSCLC)?
Its TGI is over 100 µM.

What about the TGI (SF-539 CNS) of the same compound?
Its TGI is over 100 µM.

And the TGI (A549 NSCLC)?
Its TGI is over 100 µM.

What about the TGI (M14 melanoma) of the same compound?
Its TGI is over 100 µM.

What about the TGI (T-47D breast) of the same compound?
Its TGI is over 100 µM.

And the TGI (BT-549 breast)?
The TGI was over 100 µM.

What about the TGI (786-0 renal) of the same compound?
Its TGI is over 100 µM.

What about the TGI (NCI-H522 lung) of the same compound?
Its TGI is over 100 µM.

And the TGI (NCI/ADR-RES ovarian)?
The TGI was over 100 µM.

And the TGI (CCRF-CEM leukemia)?
Its TGI is over 100 µM.

And the TGI (U251 CNS)?
The TGI was over 100 µM.

And the TGI (OVCAR-5 ovarian)?
Its TGI is over 100 µM.

And the TGI (NCI-H23 lung)?
Its TGI is over 100 µM.

And the TGI (HCT-116 colon)?
Its TGI is over 100 µM.

And the TGI (KM12 colon)?
Its TGI is over 100 µM.

What about the TGI (SF-295 CNS) of the same compound?
Its TGI is over 100 µM.

What about the TGI (MDA-MB-435) of the same compound?
Its TGI is over 100 µM.

What about the TGI (IGROV1 ovarian) of the same compound?
Its TGI is over 100 µM.

And the TGI (OVCAR-8 ovarian)?
The TGI was over 100 µM.

And the TGI (MDA-MB-231 breast)?
The TGI was over 100 µM.

And the TGI (K-562 leukemia)?
The TGI was over 100 µM.

And the TGI (HCC-2998 colon)?
The TGI was over 100 µM.

And the TGI (OVCAR-4 ovarian)?
Its TGI is over 100 µM.

And the TGI (MCF7 breast)?
Its TGI is over 100 µM.
